# Measured values published in patent publication US20250090558A1, “APPLICATION OF M[…] PROMOTING BONE FORMATION AND PREVENTING-TREATING OSTEOPOROSIS” (The First Affiliated Hospital of Zhejiang Chinese Medical …, priority 2023, published 2025).
# Tests used:
# OVX model mice = assay: ovariectomy (OVX) model mouse, estrogen-deficient osteoporosis; type: in vivo; conditions: for number of TRAP-positive cells: distal femur sections
# [1] = test system: livers, hearts, kidneys, and spleens of OVX model mice; assay: biosafety evaluation, HE staining of organs in OVX model mice; type: in vivo, mouse; conditions: low-dose and high-dose, 8 weeks of intervention
# From the text: The livers, hearts, kidneys, and spleens of the mice in the OVX model post-intervention with miltefosine for 8 weeks are collected, and the tissue morphology of these organs is observed through hematoxylin and eosin (HE) staining.
# osteoblasts = assay: alkaline phosphatase staining, osteogenic differentiation of osteoblasts; type: cell-based, mouse; conditions: in vitro; 2.5 μM, 5.0 μM, 10 μM
# [2] = test system: mouse model with femoral distal bone defect; assay: bone defect repair in mouse model with femoral distal bone defect; type: in vivo
# [3] = test system: Ppm1a knockout (Ppm1a−/−) mice with bone defect; type: in vivo, mouse
# primary osteoblasts [4] = assay: cell counting kit-8 (CCK-8) assay, viability of primary osteoblasts; type: cell-based, mouse
# primary osteoblasts [5] = assay: RT-qPCR of osteogenic genes Sp7, Bglap, Alpl in primary osteoblasts; conditions: RT-PCR
# Method: After euthanizing 3-5-day-old mouse with CO2, the euthanized mouse is soaked in 70% alcohol for disinfection for 15 minutes. The disinfected mouse is then carefully skinned from a top of the skull, and the skull tissue blocks are placed in an a-modified eagle medium (α-MEM) digestion culture medium containing 1 mg/mL collagenase-A and 1% penicillin/streptomycin. The skull tissue blocks are digested at 37° C. for 6 hours, with the cell tissue blocks being pipetted and blown every hour. After the digestion of the tissue blocks is complete to obtain a mixture, the mixture is filtered through a 70-μm cell strainer, centrifuged at 1000 revolutions per minute (rpm) for 5 minutes, and then resuspended in α-MEM culture medium to obtain mixed cells. The mixed cells are inoculated in a well plate to obtain osteoblasts, and the osteoblasts are cultured in complete α-MEM medium containing 10% fetal bovine serum. When a cell adhesion convergence degree of the osteoblasts reaches 60-70%, the osteoblasts are induced for osteogenic differentiation with an osteogenic culture medium containing ascorbic acid (50 g/mL) and β-glycerophosphate (10 millimoles per liter abbreviated as mM) for 7 days before the cells are collected for the next step of the experiment.
# 1.1.7 Extraction of Messenger Ribonucleic Acid (mRNA) of Cells and Detection of Reverse Transcription Quantitative Polymerase Chain Reaction (RT-qPCR)
# TRIzol reagent (i.e., TRI reagent®) is used to harvest and extract total RNA from the osteoblast cultures. The mRNA is then reverse transcribed into complementary deoxyribonucleic acid (DNA) using the TaqMan reverse transcription kit (Biomake). After that, a real-time quantitative polymerase chain reaction (RT-qPCR) is conducted with the SYBR Premix Ex Taq™ II.
# [6] = 8 weeks post-OVX, vs control group
# [7] = CT analysis, one week after operation
structure (smiles),measurement,setting,value
"CCCCCCCCCCCCCCCCOP([O])(=O)OCC[N+](C)(C)C (stereo not drawn) [miltefosine, hexadecylphosphocholine]",BMD at the distal femur,OVX model mice; 8 weeks post-OVX,significantly increase
same,Conn.Dn,OVX model mice; 8 weeks post-OVX,improve
same,SMI of the bone tissue,OVX model mice; 8 weeks post-OVX,improve
same,"bone loss at the distal femur (histomorphometric analysis, ABH/OG, trabecular bone area fraction)",OVX model mice; 8 weeks post-OVX,reduce bone loss
same,number of osteoblasts on the trabecular bone surface,OVX model mice; 8 weeks post-OVX,increase
same,BV/TV of trabecular bone,OVX model mice; [6],significantly increased
same,Tb.N,OVX model mice; [6],significantly increased
same,Tb.Sp,OVX model mice; [6],markedly reduced
same,Tb.Th,OVX model mice; [6],significantly increased
same,expression level of mature osteoclast marker cathepsin K (CTSK),OVX model mice; control group vs treated groups,no significant difference
same,bone formation by ALP immunohistochemical staining,"OVX model mice; distal femur, 8 weeks post-OVX",significantly promote the bone formation
same,bone formation by immunofluorescence staining for OCN,"OVX model mice; distal femur, 8 weeks post-OVX",significantly promote the bone formation
same,formation of adipocytes (Fabp4 immunohistochemical staining),"OVX model mice; distal femur, 8 weeks post-OVX",no obvious effect
same,number of TRAP-positive cells,OVX model mice; high-dose,slightly reduces
same,bone loss at the distal metaphysis of the femur (micro-CT),"OVX model mice; low-dose and high-dose groups, 8 weeks post-OVX",significantly less
same,number of TRAP-positive cells,OVX model mice; low-dose,does not affect
same,"tissue morphology of livers, hearts, kidneys, and spleens (HE staining)",[1],no obvious lesions or pathological changes
same,osteogenic differentiation capacity of osteoblasts (alkaline phosphatase staining),osteoblasts,significantly enhance
same,BMD in the bone defect repair area,[2]; [7],increase
same,BV/TV in the bone defect repair area,[2]; [7],increase
same,trabecular number (Tb.N) in the bone defect repair area,[2]; [7],increase
same,expression level of osteocalcin (OCN) in the bone defect repair area,"[2]; immunohistochemistry, vs control group",significantly increased
same,bone repair (μ-CT scans of femur),[2]; one week after model creation,effectively accelerate bone repair
same,area of new bone in the bone defect area (SO/FG staining),"[2]; vs control (vehicle) group, one week after operation",significantly larger
same,osteogenic effects in bone defect repair (Micro-CT),[3],could not exert the above osteogenic effects
same,effect on the viability of the primary osteoblasts,primary osteoblasts [4]; 0.5 μM to 20 μM in vitro,no significant effect
same,cell death of the primary osteoblasts,primary osteoblasts [4]; 50 μM,approximately 50%
same,expression of osteogenic gene Alpl (mRNA),primary osteoblasts [5],upregulate
same,expression of osteogenic gene Bglap (mRNA),primary osteoblasts [5],upregulate
same,expression of osteogenic gene Sp7 (mRNA),primary osteoblasts [5],upregulate
